Active and inactive are the calls of the source. The rule behind the calls is not given here.

The subject of the series is CCRIS mutagenicity, Ames/micronucleus/aberration tests. Description: CCRIS mutagenicity studies.
Setting [1] is: Test System: AMES SALMONELLA TYPHIMURIUM, Strain/Indicator: TA98, Metabolic Activation: NONE, Method: PREINCUBATION
[2] abbreviates: Test System: AMES SALMONELLA TYPHIMURIUM, Strain/Indicator: TA100, Metabolic Activation: NONE, Method: PREINCUBATION
[3] abbreviates: Test System: AMES SALMONELLA TYPHIMURIUM, Strain/Indicator: TA100, Metabolic Activation: NONE, Method: STANDARD PLATE.
The mark [4] stands for this setting: Test System: AMES SALMONELLA TYPHIMURIUM, Strain/Indicator: TA100, Metabolic Activation: RAT, LIVER, S-9, AROCLOR 1254, Method: STANDARD PLATE.
Where [5] appears, read: Test System: AMES SALMONELLA TYPHIMURIUM, Strain/Indicator: TA1535, Metabolic Activation: NONE, Method: STANDARD PLATE.
[6] abbreviates: Test System: AMES SALMONELLA TYPHIMURIUM, Strain/Indicator: TA1535, Metabolic Activation: RAT, LIVER, S-9, AROCLOR 1254, Method: STANDARD PLATE.
Setting [7] is: Test System: AMES SALMONELLA TYPHIMURIUM, Strain/Indicator: TA100, Metabolic Activation: RAT, LIVER, S-9, AROCLOR 1254, Method: PREINCUBATION

For `CC(Cl)CCl` (stereo not given), the mutagenic call (End Point: IN VITRO CHROMOSOMAL ABERRATIONS, Test System: CHINESE HAMSTER OVARY CELLS, Metabolic Activation: RAT, LIVER, S-9, AROCLOR 1254) was “active; positive”; the mutagenic call under setting [1] was “inactive; negative”; the mutagenic call (Test System: AMES SALMONELLA TYPHIMURIUM, Strain/Indicator: TA98, Metabolic Activation: RAT LIVER S-9, PHENOBARBITAL AND BETA-NAPHTHOFLAVONE, Method: PREINCUBATION) was “inactive; negative”; the mutagenic call under setting [2] is “inactive; negative”; the mutagenic call under setting [3] was “active; positive”; the mutagenic call (Test System: AMES SALMONELLA TYPHIMURIUM, Strain/Indicator: TA100, Metabolic Activation: RAT LIVER S-9, PHENOBARBITAL AND BETA-NAPHTHOFLAVONE, Method: PREINCUBATION) was “inactive; negative”. The mutagenic call was “active; positive” under setting [4]; “inactive; negative” (Test System: AMES SALMONELLA TYPHIMURIUM, Strain/Indicator: TA102, Metabolic Activation: NONE, Method: PREINCUBATION); “inactive; negative” (Test System: AMES SALMONELLA TYPHIMURIUM, Strain/Indicator: TA102, Metabolic Activation: RAT LIVER S-9, PHENOBARBITAL AND BETA-NAPHTHOFLAVONE, Method: PREINCUBATION); “inactive; negative” (Test System: AMES SALMONELLA TYPHIMURIUM, Strain/Indicator: TA104, Metabolic Activation: NONE, Method: PREINCUBATION); “inactive; negative” (Test System: AMES SALMONELLA TYPHIMURIUM, Strain/Indicator: TA104, Metabolic Activation: RAT LIVER S-9, PHENOBARBITAL AND BETA-NAPHTHOFLAVONE, Method: PREINCUBATION); “inactive; negative” (Test System: AMES SALMONELLA TYPHIMURIUM, Strain/Indicator: TA1535, Metabolic Activation: NONE, Method: PREINCUBATION). Further, the mutagenic call under setting [5] was “active; positive”; the mutagenic call (Test System: AMES SALMONELLA TYPHIMURIUM, Strain/Indicator: TA1535, Metabolic Activation: RAT LIVER S-9, PHENOBARBITAL AND BETA-NAPHTHOFLAVONE, Method: PREINCUBATION) was “inactive; negative”; the mutagenic call under setting [6] is “active; positive”; the mutagenic call (Test System: AMES SALMONELLA TYPHIMURIUM, Strain/Indicator: TA1537, Metabolic Activation: NONE, Method: PREINCUBATION) was “inactive; negative”; the mutagenic call (Test System: AMES SALMONELLA TYPHIMURIUM, Strain/Indicator: TA1537, Metabolic Activation: RAT LIVER S-9, PHENOBARBITAL AND BETA-NAPHTHOFLAVONE, Method: PREINCUBATION) was “inactive; negative”; the mutagenic call (Test System: E.COLI, Strain/Indicator: WP2UVRA/PKM101, Metabolic Activation: NONE, Method: PREINCUBATION) was “inactive; negative”. For the same molecule, the mutagenic call (Test System: E.COLI, Strain/Indicator: WP2UVRA/PKM101, Metabolic Activation: RAT LIVER S-9, PHENOBARBITAL AND BETA-NAPHTHOFLAVONE, Method: PREINCUBATION) was “inactive; negative”; the mutagenic call (Test System: E.COLI, Strain/Indicator: WP2UVRA, Metabolic Activation: NONE, Method: PREINCUBATION) is “inactive; negative”; the mutagenic call (Test System: E.COLI, Strain/Indicator: WP2UVRA, Metabolic Activation: RAT LIVER S-9, PHENOBARBITAL AND BETA-NAPHTHOFLAVONE, Method: PREINCUBATION) was “inactive; negative”.

For the molecule `CCN(CC)[N+](=O)[O-]`, the mutagenic call (Test System: E. COLI, Strain/Indicator: WP2 (HCR-), Metabolic Activation: RAT, LIVER, MICROSOMES, PHENOBARBITAL) was “inactive; negative”.

Take `CCC(=O)OCc1ccc([N+](=O)[O-])cc1`: the mutagenic call by setting is: under setting [1], “inactive; negative”; (Test System: AMES SALMONELLA TYPHIMURIUM, Strain/Indicator: TA100(NR), Metabolic Activation: NONE, Method: PREINCUBATION) “inactive; negative”; under setting [2], “active; positive”; under setting [7], “active; positive”.

As for `CC(=O)[CH-]C(=O)c1ccccc1.CC(=O)[CH-]C(=O)c1ccccc1.CC[O-].CC[O-].[Ti+4]`, the mutagenic call (Test System: AMES SALMONELLA TYPHIMURIUM, Strain/Indicator: TA98, Metabolic Activation: NONE, Method: STANDARD PLATE) was “inactive; negative”; the mutagenic call (Test System: AMES SALMONELLA TYPHIMURIUM, Strain/Indicator: TA98, Metabolic Activation: RAT, LIVER, S-9, AROCLOR 1254, Method: STANDARD PLATE) was “inactive; negative”; the mutagenic call under setting [3] is “inactive; negative”; the mutagenic call under setting [7] is “inactive; negative”; the mutagenic call under setting [4] was “inactive; negative”; the mutagenic call under setting [5] is “inactive; negative”. The mutagenic call by setting is: (Test System: AMES SALMONELLA TYPHIMURIUM, Strain/Indicator: TA1535, Metabolic Activation: RAT, LIVER, S-9, AROCLOR 1254, Method: PREINCUBATION) “inactive; negative”; under setting [6], “inactive; negative”; (Test System: AMES SALMONELLA TYPHIMURIUM, Strain/Indicator: TA1537, Metabolic Activation: NONE, Method: STANDARD PLATE) “inactive; negative”; (Test System: AMES SALMONELLA TYPHIMURIUM, Strain/Indicator: TA1537, Metabolic Activation: RAT, LIVER, S-9, AROCLOR 1254, Method: STANDARD PLATE) “inactive; negative”; (Test System: AMES SALMONELLA TYPHIMURIUM, Strain/Indicator: TA1538, Metabolic Activation: NONE, Method: STANDARD PLATE) “inactive; negative”; (Test System: AMES SALMONELLA TYPHIMURIUM, Strain/Indicator: TA1538, Metabolic Activation: RAT, LIVER, S-9, AROCLOR 1254, Method: STANDARD PLATE) “inactive; negative”.

Take `O=C(O)c1ccc(NC2OCC(O)C(O)C2O)cc1` (stereo not given): for the setting “Test System: AMES SALMONELLA TYPHIMURIUM, Strain/Indicator: TA100, Metabolic Activation: NONE, Method: LIQUID INCUBATION”, the mutagenic call is “inactive; negative”.

Turning to `CSC1=N[C@@](C)(c2ccccc2)C(=O)N1Nc1ccccc1`, the mutagenic call reads like this: (End Point: In vitro chromosomal aberrations, Test System: Human peripheral blood lymphocytes, Metabolic Activation: None) “active; positive”; (End Point: In vitro chromosomal aberrations, Test System: Human peripheral blood lymphocytes, Metabolic Activation: S-9) “active; positive”; (End Point: In vivo micronucleus, Test System: Bone marrow polychromatic erythrocytes, Species: Mouse, Strain/Sex: CD-1/Male and female, Route: Intraperitoneal) “inactive; negative”; (End Point: UDS, Test System: Rat hepatocytes, Species: Wistar/Male, Method: Autoradiography) “inactive; negative. (higher doses too toxic to score)”; (Test System: Ames Salmonella typhimurium, Strain/Indicator: TA98, Metabolic Activation: None, Method: Plate incorporation and preincubation) “inactive; negative”; (Test System: Ames Salmonella typhimurium, Strain/Indicator: TA98, Metabolic Activation: Rat, Liver, S-9, Method: Plate incorporation and preincubation) “inactive; negative”. Moreover, the mutagenic call reads like this: (Test System: Ames Salmonella typhimurium, Strain/Indicator: TA100, Metabolic Activation: None, Method: Plate incorporation and preincubation) “inactive; negative”; (Test System: Ames Salmonella typhimurium, Strain/Indicator: TA100, Metabolic Activation: Rat, Liver, S-9, Method: Plate incorporation and preincubation) “inactive; negative”; (Test System: Ames Salmonella typhimurium, Strain/Indicator: TA102, Metabolic Activation: None, Method: Plate incorporation and preincubation) “inactive; negative”; (Test System: Ames Salmonella typhimurium, Strain/Indicator: TA102, Metabolic Activation: Rat, Liver, S-9, Method: Plate incorporation and preincubation) “inactive; negative”; (Test System: Ames Salmonella typhimurium, Strain/Indicator: TA1535, Metabolic Activation: None, Method: Plate incorporation and preincubation) “inactive; negative”; (Test System: Ames Salmonella typhimurium, Strain/Indicator: TA1535, Metabolic Activation: Rat, Liver, S-9, Method: Plate incorporation and preincubation) “inactive; negative”. Further, the mutagenic call was “inactive; negative” (Test System: Ames Salmonella typhimurium, Strain/Indicator: TA1537, Metabolic Activation: None, Method: Plate incorporation and preincubation); “inactive; negative” (Test System: Ames Salmonella typhimurium, Strain/Indicator: TA1537, Metabolic Activation: Rat, Liver, S-9, Method: Plate incorporation and preincubation); “inactive; negative” (Test System: Mouse lymphoma, Strain/Indicator: L5178Y (tk+/tk-), Metabolic Activation: None, Method: Microtiter fluctuation); “active; positive. (increase in small colony mutant frequency indicates clastogenicity)” (Test System: Mouse lymphoma, Strain/Indicator: L5178Y (tk+/tk-), Metabolic Activation: S-9, Method: Microtiter fluctuation).
